Data published in patent publication US9880171B2, “iASPP phosphorylation and metastatic potential” (LUDWIG INSTITUTE FOR CANCER RESEARCH LTD., priority 2012, dated 2018).
Residue numbers refer to the chain shown, from its start. Names and notes keep the numbering of the source.

B1: iASPP(1-240): purified recombinant N-terminal iASPP fragment, amino acids 1-240 of SEQ ID NO: 2, GST tag (protein, listed as Homo sapiens)
chain: MDSEAFQSARDFLDMNFQSLAMKHMDLKQMELDTAAAKVDELTKQLESLWSDSPAPPGPQAGPPSRPPRYSSSSIPEPFGSRGSPRKAATDGADTPFGRSESAPTLHPYSPLSPKGRPSSPRTPLYLQPDAYGSLDRATSPRPRAFDGAGSSLGRAPSPRPGPGPLRQQGPPTPFDFLGRAGSPRGSPLAEGPQAFFPERGPSPRPPATAYDAPASAFGSSLLGSGGSAFAPPLRAQDDL
modifications: GST tag
B2: iASPP(1-240)S84D/S113D: iASPP phosphor-mimic mutant of the N-terminal fragment 1-240 (protein, listed as Homo sapiens)
chain: B1 chain with S84D, S113D

Tests used:
Type in all cases: cell-based, human
[1] = tested on: iASPP modification in H1299 cells; test: nocodazole-induced iASPP modification in H1299 cells, G2/M kinase inhibitor panel (immunoblotting); conditions: 2-10 μM, 10 μM nocodazole overnight
Procedure: FIG. 12. […] FIG. 12A. […] FIG. 12B. […] FIG. 12C.
FIG. 13. FIG. 13A. […] FIG. 13B.
FIG. 20. […] FIG. 20A. […] Bar=20 μm.
For WB, cells were lysed in buffer containing 8 M urea, 1 M thiourea, 0.5% CHAPS, 50 mM DTT, and 24 mM spermine. A total of 40 μg of protein extract was loaded per lane into SDS-polyacrylamide gels. Gels were transferred onto nitrocellulose membrane (Protran) and the resulting blots incubated first with primary antibody overnight at 4° C. and then with the appropriate secondary horseradish peroxidize-conjugated antibody (Dako). The results were visualized by enhanced chemiluminescent detection (Amersham Biosciences) using X-ray film (Fujifilm).

[2] = tested on: slow-migrating iASPP in H1299 cells; test: induction of slow-migrating iASPP by chemotherapeutic agents in H1299 cells (WB); conditions: H1299, overnight treatment (oxidative stress inducers 1-3 h; EDTA 4 mM 1 hour), antibody LX49.3
Procedure: FIG. 3. […] H1299 cells were treated overnight with the indicated concentrations of mitosis-arrest drugs nocodazole, colchicine and taxol, DNA damaging drugs, or oxidative stress inducers (1-3 h). Total lysate was prepared in UREA buffer, and iASPP expression patterns were determined using antibody LX49.3. […] Mitotic-arrest drugs were applied to H1299 cells to induce iASPP mobility shift. Floating and adherent cells were collected, and iASPP expression pattern was determined by western blotting (WB). C. […] Left panel, cells in mitosis (floating) and interphase (adherent) were collected by mitotic shake-off, and iASPP expression pattern was determined by WB. Right panel, H1299 cells after Taxol treatment, or mitotic shake-off were immunofluorescence stained using antibody LX49.3. In mitotic shake-off experiment, mitotic shake-off cells were cytospun to slides; the remaining adherent cells after shaking were scraped off and used as interphase control. […] Melanoma cells were treated with nocodazole overnight and iASPP expression patterns from total cell lysate was determined by WB.
FIG. 4. A. Floating and adherent H1299 cells separately collected by mitotic shake-off (FIG. 3C) were stained with propidium iodide (PI), followed by FACS analysis. […] B. H1299 cells were subjected to treatment of 10 μM nocodazole for 24 hours (Nocodazole), on ice for 30 minutes (Cold shock), or 4 mM EDTA for 1 hour (EDTA). Left panel: iASPP expression pattern was analysed by immunoblotting. Right panel: phase contrast images were taken before collection of the cells for WB analysis. Bar=20 μm.
For WB, cells were lysed in buffer containing 8 M urea, 1 M thiourea, 0.5% CHAPS, 50 mM DTT, and 24 mM spermine. A total of 40 μg of protein extract was loaded per lane into SDS-polyacrylamide gels. Gels were transferred onto nitrocellulose membrane (Protran) and the resulting blots incubated first with primary antibody overnight at 4° C. and then with the appropriate secondary horseradish peroxidize-conjugated antibody (Dako). The results were visualized by enhanced chemiluminescent detection (Amersham Biosciences) using X-ray film (Fujifilm). For cell lysate immunoprecipitation, cells were dissolved in NP40 buffer (50 mM Tris-HCl pH 8.0, 150 mM NaCl, 1% NP-40) with protease inhibitor cocktail mix (Roche Diagnostics). Cells were further thoroughly broken by ultrasonication, followed by spinning for 1 hour. Achieved suspension was adjusted to 1-2 mg/ml using NP40 buffer and incubated with 20 μl nickel beads, glutathione beads, or protein A beads (with 2 μg required antibody) for 2 h at room temperature. The beads were washed for four times with NP40 buffer, boiled for 5 min in Laemmli sample buffer, and applied for Western blotting. For pure protein immunoprecipitation, 5-10 μg purified proteins were mixed in NP40 buffer with 1 mg/ml BSA for 2 h at room temperature.
As mitotic cells often detach from the tissue culture dish, floating cells were separated from adherent cells after the treatment of Nocodozole, Taxol and Colchicine.

[3] = tested on: nuclear entry of FITC labeled iASPP(625-828); test: in vitro nuclear import assay in digitonin permeabilized H1299 cells; conditions: for nuclear entry of FITC labeled iASPP(625-828): pre-incubation with 0-1 mg/ml non-labeled protein, 2 hours
Procedure: FIG. 7. S84/S113 phosphorylation of iASPP prevents N- and C-terminal self-interaction and promotes iASPP nuclear localization. A. N- and C-terminal iASPP self-interacts, and iASPP(1-240 of SEQ ID NO: 2)S84D/S113D fails to interact with C-terminal iASPP in vitro. Upper panel: 10 μg/ml purified GST-tagged iASPP (1-240 of SEQ ID NO: 2) or iASPP (249-482 of SEQ ID NO: 2) were incubated with 10 μg/ml purified 6*His-tagged iASPP (625-828 of SEQ ID NO: 2) or ASPP2 (905-1128 of SEQ ID NO: 2) in NP40 buffer for 2 hours. iASPP (1-240 of SEQ ID NO: 2) and iASPP (249-482 of SEQ ID NO: 2) were pulled down by glutathione beads. Bound iASPP (625-828 of SEQ ID NO: 2) and ASPP2 (905-1128 of SEQ ID NO: 2) were determined using anti-His antibodies. Lower panel: 10 μg/ml purified iASPP (1-240 of SEQ ID BO: 2)-GST mutants were incubated with 10 μg/ml mixture of iASPP (625-828 of SEQ ID NO: 2)-His and ASPP2 (905-1128 of SEQ ID NO: 2)-His in NP40 buffer for 2 hours. Interaction was determined as above. […] Cells were suspended in NP40 buffer, and interactions between overexpressed iASPP(1-478 of SEQ ID NO: 2)-V5 and purified iASPP(625-828 of SEQ ID NO: 2)-His were determined by co-immunoprecipitation. […] Cells were suspended in NP40 buffer, and interaction between endogenous iASPP and iASPP (1-240 of SEQ ID NO: 2)-GST was determined by co-immunoprecipitation. […] Upper right panel: H1299 cells were treated with or without nocodazole and iASPP mobility shift were determined in non-denaturing or denaturing WB. […] After 4 washes, the interaction between them was determined by co-immunoprecipitation using anti-GST and anti-V5 antibodies. […] Nuclear iASPP (625-828 of SEQ ID NO: 2)-FITC was determined by direct FITC fluorescence. iASPP(1-240)S84D/S113D and ASPP2(905-1128 of SEQ ID NO: 2) were used as control. […]
Purified proteins were labeled with FITC according to protocol from protein label kit (F-6434, Invitrogen). […] The cellular localization of the substrate was determined by direct fluorescence observation under confocol microscope. […]

Row | Molecule | induction of slow-migrating iASPP isoform [2] | other results
1 | CC[C@H](CO)Nc1nc(NCc2ccccc2)c2ncn(C(C)C)c2n1 [roscovitine] | – | prevention of nocodazole-induced iASPP modification ([1]; panel of 15 G2/M kinase inhibitors): only weakly affected iASPP modification; prevention of nocodazole-induced iASPP modification ([1]; panel of 18 G2/M kinase inhibitors): failed to affect iASPP modification
2 | CC(=O)O[C@H]1C(=O)[C@@]2(C)[C@H]([C@H](OC(=O)c3ccccc3)[C@]3(O)C[C@H](OC(=O)[C@H](O)[C@@H](NC(=O)c4ccccc4)c4ccccc4)C(C)=C1C3(C)C)[C@]1(OC(C)=O)CO[C@@H]1C[C@@H]2O [Taxol] | induced | –
3 | COc1cccc2c1C(=O)c1c(O)c3c(c(O)c1C2=O)C[C@@](O)(C(=O)CO)C[C@@H]3O[C@H]1C[C@H](N)[C@H](O)[C@H](C)O1 [Doxorubicin] | did not result in increased slow-migrating iASPP isoform expression | –
4 | O=C(O)CN(CCN(CC(=O)O)CC(=O)O)CC(=O)O [EDTA] | failed to affect iASPP mobility | –
5 | CN[C@@H]1C[C@H]2O[C@@](C)([C@@H]1OC)n1c3ccccc3c3c4c(c5c6ccccc6n2c5c31)C(=O)NC4 [Staurosporine] | did not result in increased slow-migrating iASPP isoform expression | –
6 | N.N.[Cl][Pt][Cl] [Cisplatin] | did not result in increased slow-migrating iASPP isoform expression | –
7 | COc1cc2c(c(OC)c1OC)-c1ccc(OC)c(=O)cc1[C@@H](NC(C)=O)CC2 [Colchicine] | induced | –
8 | OO [hydrogen peroxide] | did not result in increased slow-migrating iASPP isoform expression | –
9 | B1 | – | nuclear entry of FITC labeled iASPP(625-828) [3]: effectively prevented the nuclear entry; nuclear entry of ASPP2(905-1128) ([3]; pre-incubation with non-labeled protein): no impact on the nuclear entry of ASPP2(905-1128)
10 | B2 | – | nuclear entry of FITC labeled iASPP(625-828) [3]: failed to have any impact
